{"source": "patent US7842479B2", "about": "(priority 2004, dated 2010)", "key": {"[1]": {"system": "cidABC and lrgAB transcription", "assay_type": "cell-based, S. aureus"}, "[2]": {"system": "cidC-encoded pyruvate oxidase", "assay_type": "biochemical, S. aureus"}, "SH1000 strain [3]": {"system": "SH1000 strain", "assay_type": "cell-based"}, "S. aureus UAMS-1": {"system": "S. aureus UAMS-1", "assay_type": "cell-based"}, "SH1000 strain [4]": {"system": "SH1000 strain", "assay_type": "cell-based", "remark": "listed apart in the source"}, "8325-4 strain [5]": {"system": "8325-4 strain"}, "8325-4 strain [6]": {"system": "8325-4 strain", "assay_type": "cell-based"}, "[7]": {"system": "S. aureus KB1050 (cidA mutant)", "assay_type": "cell-based"}}, "note": "Entries after “also recorded” stand apart in the source; their conditions may differ. Where a name gives a salt, the structure may show the parent alone. Read-outs that look alike come from different tables or passages of the source.", "data": [{"smiles": "Cl", "note": "[HCl]", "values": [{"measurement": "cidABC and lrgAB expression", "setting": "[1]; pH 5", "result": "elevated the expression of cidABC relative to growth in neutral media"}]}, {"smiles": "CC(=O)[O-].[Na+]", "note": "[Na-acetate, sodium acetate]", "values": [{"measurement": "cidABC and lrgAB expression", "setting": "[1]; pH 4.5", "result": "dramatically increased"}, {"measurement": "cidABC and lrgAB expression", "setting": "[1]; pH 6.5", "result": "undetectable"}]}, {"smiles": "[Cl-].[Na+]", "note": "[NaCl, sodium chloride]", "values": [{"measurement": "cidABC and lrgAB expression", "setting": "[1]; pH 4.5", "result": "not detected at any of the pH values tested"}]}, {"smiles": "CC(=O)O", "note": "[acetic acid]", "values": [{"measurement": "alsSD expression", "setting": "alsSD transcription", "result": "dramatically increased expression of alsSD at all time points tested"}, {"measurement": "cidABC expression", "setting": "[1]", "result": "dramatically increased expression of cidABC"}, {"measurement": "cidABC and lrgAB expression", "setting": "[1]; pH 5", "result": "pronounced positive effect on both cidABC and lrgAB expression"}]}, {"smiles": "OCC(O)CO", "note": "[glycerol]", "values": [{"measurement": "pyruvate oxidase activity with carbon source added instead of sodium pyruvate", "setting": "[2]", "result": "the only one that possessed activity was the phosphoenol pyruvate"}]}, {"smiles": "C=C(OP(=O)(O)O)C(=O)O", "note": "[phosphoenol pyruvate]", "values": [{"measurement": "pyruvate oxidase activity with carbon source added instead of sodium pyruvate", "setting": "[2]", "result": "approximately half of what was seen with sodium pyruvate"}]}, {"smiles": "CC(=O)[O-].[K+]", "note": "[potassium acetate]", "values": [{"measurement": "pyruvate oxidase activity with carbon source added instead of sodium pyruvate", "setting": "[2]", "result": "the only one that possessed activity was the phosphoenol pyruvate"}]}, {"smiles": "CO[C@H]1/C=C/O[C@@]2(C)Oc3c(C)c(O)c4c(O)c(c(/C=N/N5CCN(C)CC5)c(O)c4c3C2=O)NC(=O)/C(C)=C\\C=C\\[C@H](C)[C@H](O)[C@@H](C)[C@@H](O)[C@@H](C)[C@H](OC(C)=O)[C@@H]1C", "note": "[rifampin]", "values": [{"measurement": "loss of viable cell counts", "setting": "SH1000 strain [3]", "result": "lose two log units of viable cell counts"}, {"measurement": "decrease in viable cell counts", "setting": "S. aureus UAMS-1", "result": "three log decrease in viable cell counts; also recorded: just over one log decrease"}, {"measurement": "loss of viability", "setting": "SH1000 strain [4]", "result": "two log loss of viability"}, {"measurement": "difference in viable cell counts determined using the two methods", "setting": "8325-4 strain [5]", "result": "greater than 1,000 fold"}, {"measurement": "viability", "setting": "8325-4 strain [5]; Staphylococcus aureus", "result": "~100", "unit": "%"}, {"measurement": "loss of viable cell counts", "setting": "8325-4 strain [6]", "result": "lose two log units of viable cell counts"}, {"measurement": "rifampin sensitivity relative to UAMS-1", "setting": "[7]", "result": "decreased rifampin sensitivity relative to UAMS-1"}, {"measurement": "viable cell counts compared to UAMS-1 after incubation with rifampin", "setting": "[7]", "result": "greater than one log unit higher viable cell counts"}]}, {"smiles": "CC(O)C(=O)[O-].[Na+]", "note": "(stereo not shown) [sodium lactate]", "values": [{"measurement": "pyruvate oxidase activity with carbon source added instead of sodium pyruvate", "setting": "[2]", "result": "the only one that possessed activity was the phosphoenol pyruvate"}]}]}
